Measurements published in paper PMC7948479, “Allostery in the nitric oxide dioxygenase mechanism of flavohemoglobin” (The Journal of Biological Chemistry, 2020).

What was measured:
flavoHb-NOD = molecular target: T1, flavoHb-NOD (Escherichia coli, UniProt P24232); assay: H2O2 sensitivity of the flavoHb-NOD; format: biochemical; settings: for protection of flavoHb-NOD against H2O2: resting state, 2 mM ascorbate or 10 µM miconazole
T1 construct: made in house; host or cells: E. coli hmp deletion strain AG103 carrying pUC19hmp
Procedure: Figure S5. H2O2 sensitivity of the flavoHb-NOD. NOD activity of flavoHb is rapidly lost upon exposure to H2O2 (panel A), and heme absorbance decreases with H2O2 exposure (panel B). The peroxidizable substrate ascorbate and the heme ligand miconazole (6) afford protection thus […]
(A) FlavoHb (0.1 µM heme) […]
was exposed to 0 (○), 50 (◼) or 200 µM H2O2 (●). Catalase (1000 U/mL) was added at various times to terminate reactions, and NOD activity was measured as described under Experimental Procedures. (B) Ferric flavoHb (5 µM heme) was exposed to 200 µM H2O2, and spectra were recorded at 2 min intervals (solid lines) or after a 10 min exposure in the presence of 2 mM ascorbate (dashed line) or 10 µM miconazole (dotted line). Reactions were at 37°C in 50 mM potassium phosphate buffer, pH 7.8, containing 0.1 mM EDTA. Error bars represent the S.D. of […]
(1 picture or pasted object on this page, not shown here)

E. coli flavoHb-NOD [1] = molecular target: E. coli flavoHb-NOD (Escherichia coli, UniProt P24232); format: biochemical; set-up: made in house; host or cells: E. coli hmp deletion strain AG103 carrying pUC19hmp
Excerpt: We have formulated a steady-state velocity equation for the catalytic cycle with the activating trigger step (KT) (Equation 1).(1) v= Vmax(a) where a=([NO]^2[O2]^2/K1K2K3KTK4)/(1+([O2]/K1)+([O2]^2/K1K2)+(([O2]^2[NO])/K1K2K3)+(([O2]^2[NO])/K1K2K3KT)+(([O2]^2[NO]^2)/K1K2K3KTK4))
(2) v= Vmax(a)(b) where b=[NO]/(K3+([NO](1+((K2/[O2])(1+([NO]/Ki(NO)))))))
In addition, we have introduced a factor and equilibrium constant Ka(O2) for rare situations in which O2 causes an additional NO-independent activation of catalysis possibly by occupying unique binding sites or cavities (Equation 5).
(§1) NOD activity was measured amperometrically in 100 mM phosphate buffer, pH 7.0, containing 0.3 mM EDTA, 100 μg/ml bovine serum albumin (BSA) (Fraction V), 100 μM NADH, 0.1 μM FAD with NO, O2, and N2 mixtures added as described ([4], [72]). NADH oxidase activity was followed spectrophotometrically at 340 nm in a 1.0-ml cuvette containing 90 mM Tris chloride buffer, pH 8.2, 100 μM NADH, 200 μM O2, 0.1 μM FAD, 100 μg/ml BSA, and 0.3 mM EDTA and incubated at 37 °C. Cytochrome b5 reductase activity was assayed at 37 °C by following the rate of absorbance increase at 555 nm in a 1.0-ml reaction buffered with 90 mM Tris chloride, pH 8.2, and containing 10 μM ferric cytochrome b5, 200 μM O2, 20 μM NADH, 0.1 μM FAD, 100 μg/ml BSA, and 0.3 mM EDTA. TMAO reductase activity was assayed by following the absorbance decrease at 340 nm in a 1.0-ml anaerobic reaction containing 12 U Aspergillus niger glucose oxidase, 5 mM glucose, 260 U catalase, 400 mM TMAO, 100 μM NADH, 0.1 μM FAD, 100 μg/ml BSA, and 0.3 mM EDTA in 90 mM Tris chloride pH 8.2 and incubated at 37 °C. Ngb reductase activity was assayed by following the absorbance increase at 424 nm in a 1.0-ml anaerobic reaction containing 12 U glucose oxidase, 5 mM glucose, 260 U catalase, 5 μM Ngb, 50 μM NADH, 0.1 μM FAD, 100 μg/ml BSA, and 0.3 mM EDTA in 90 mM Tris chloride buffer, pH 8.2, and incubated at 37 °C. Methyl viologen reductase activity was assayed by following the formation of the blue cation radical at 603 nm and by applying an extinction coefficient of 13,300 M^−1 cm^−1 in a 1.0-ml anaerobic reaction buffered with 10 mM potassium phosphate, pH 7.0, and containing 12 U glucose oxidase, 5 mM glucose, 260 U catalase, 100 μM NADH, 0.1 μM FAD, 100 μg/ml BSA, 0.3 mM EDTA, and 200 mM sodium chloride and incubated at 37 °C. NO reductase activity was assayed amperometrically at 37 °C in a 1.0-ml anaerobic reaction containing 2 μM NO, 100 μM NADH, 0.1 μM FAD, 12 U glucose oxidase, 5 mM glucose, 260 U catalase, 100 μg/ml BSA, and 0.3 mM EDTA buffered with 10 mM potassium phosphate pH 7.0. CO effects were tested at a final concentration of 50 μM as diluted from a 1 mM stock in water. All activities are reported relative to the heme content of flavoHb.
Rate constants were estimated from the model kinetic equation using Python programming with successive approximations to optimize fits with varying NO and O2 concentrations. Vmax, K1, K2, KT, and Kii(NO) values were treated as independent variables for a given flavoHb while allowing K3, K4, and Ki(NO) to vary over limited ranges with varying O2 concentration. Kii(NO) was estimated from NO inhibition at saturating O2 concentrations.

[2] = molecular target: flavoHb heme (Fe^2+ / Fe^3+) (Escherichia coli, UniProt P24232)
Procedure: (§2) FAD and heme reduction were monitored by following the changes in flavoHb absorbance at 460 and 430 nm, respectively, with stopped-flow rapid mixing of 50 μM NADH and 10 μM flavoHb in N2-purged buffer ([4]). O2, NO, and CO association rate constants were determined by photolyzing 50 μM of the respective ferrous flavoHb species with a 300-ns pulse from a 577-nm laser and by spectrophotometrically following ligand reassociation in O2-, NO-, or CO-saturated buffer unless otherwise indicated ([4], [5]). […] Binding of NO was measured by the change of absorbance at 422 nm by applying a difference extinction coefficient of 0.040 μM^−1 cm^−1. O2 and CO dissociation rate constants were determined by stopped-flow rapid mixing with either CO or NO displacement ([4], [5]). The cuvette path length was 1.0 cm. All reactions were at 20 °C in filtered 100 mM sodium phosphate buffer, pH 7.0, containing 0.3 mM EDTA. Catalase (1000 U/ml) was included in all reactions containing O2 to scavenge H2O2 produced by the NADH oxidase activity of flavoHb and to regenerate O2.

[3] = molecular target: flavoHb heme (Fe^2+ / Fe^3+) (Escherichia coli, UniProt P24232, Y29F); settings: PheB10 variant; 100 μM CO
Procedure: as §2

[4] = molecular target: flavoHb heme (Fe^2+ / Fe^3+) (Escherichia coli, UniProt P24232, Q53H); settings: HisE7 variant; 100 μM CO
Procedure: as §2

TMAO reductase activity = format: biochemical; settings: CO 50 μM; AsnF7 variant
E. coli flavoHb-NOD [5] = settings: read-out: Ki(CO); cited from earlier work
E. coli flavoHb-NOD [6] = molecular target: E. coli flavoHb-NOD (Escherichia coli, UniProt P24232, K84N); settings: 1000 U of catalase
Procedure: as §1

OO [H2O2]
effect of H2O2 on flavoHb-NOD activity (flavoHb-NOD; 50 or 200 µM H2O2): sensitive

Clc1ccc(COC(Cn2ccnc2)c2ccc(Cl)cc2Cl)c(Cl)c1 (stereo not shown) [miconazole]
protection of flavoHb-NOD against H2O2 (flavoHb-NOD): protect

nitric oxide [NO]
inhibition of NOD activity by NO (E. coli flavoHb-NOD [1]; 1:100 ratio of NO to O2, reversible, competitive with O2): roughly 50%

[C-]#[O+] [CO, reference compound]
inhibition of fast phase of O2 rebinding [2]: ~10%
inhibition of slow phase of O2 rebinding [2]: 86%
inhibition of O2 migration and binding in the slow phase [3]: ~50%
inhibition of O2 migration and binding in the slow phase [4]: ~50%
inhibition of TMAO reduction (TMAO reductase activity): ~90%
Ki (E. coli flavoHb-NOD [5]): ~1 µM

O=O [O2]
inhibition by O2 with respect to NO (E. coli flavoHb-NOD [1]): no competitive inhibition
selectivity for O2 over N2 (E. coli flavoHb-NOD [1]): greater than 80 fold

Catalase
protection of AsnF7 NOD activity from inactivation (E. coli flavoHb-NOD [6]): modest protection

O=C1O[C@H]([C@@H](O)CO)C(O)=C1O [ascorbate]
protection of flavoHb-NOD against H2O2 (flavoHb-NOD): protect
